Test results taken from PMC5823565, “Targeting ovarian cancer and endothelium with an allosteric PTP4A3 phosphatase inhibitor” (Oncotarget, 2017).
“Also recorded” adds a separate entry of the source. Each block holds one compound with its values, some of them ahead of it.

Key:
[1] = system: HeyA8 cells; assay: Scratch wound migration assay; format: cell-based, human; settings: measured 14 h after scratch
[2] = system: A2780 spheroids; assay: Spheroid viability assay (CellTiterGlo 3D); format: cell-based; settings: Homo sapiens, 48 h, Mean ± SD, N=3
[3] = system: SKOV3IP1 spheroids; assay: Spheroid viability assay (CellTiterGlo 3D); format: cell-based; settings: Homo sapiens; 48 h, Mean ± SD, N=3
[4] = system: COV362 spheroids; assay: Spheroid viability assay (CellTiterGlo 3D); format: cell-based; settings: Homo sapiens, 48 h, Mean ± SD, N=3
[5] = system: HeyA8-MDR spheroids; assay: Spheroid viability assay (CellTiterGlo 3D); format: cell-based; settings: Homo sapiens, 48 h, Mean ± SD, N=3
[6] = system: SKOV3TRIP2 spheroids; assay: Spheroid viability assay (CellTiterGlo 3D); format: cell-based; settings: Homo sapiens; 48 h, Mean ± SD, N=3
[7] = system: A2780CP20 spheroids; assay: Spheroid viability assay (CellTiterGlo 3D); format: cell-based; settings: Homo sapiens; 48 h, Mean ± SD, N=3
[8] = system: normal human ovarian HI0-180 epithelial cells; assay: Spheroid viability assay (CellTiterGlo 3D); format: cell-based; settings: Epithelial cell, 48 h
[9] = system: SKOV3 spheroids; assay: Spheroid viability assay (CellTiterGlo 3D); format: cell-based; settings: Homo sapiens, SK-OV-3; 48 h, Mean ± SD, N=3
[10] = system: OVCAR4 spheroids; assay: Spheroid viability assay (CellTiterGlo 3D); format: cell-based; settings: Homo sapiens, OVCAR-4; 48 h, Mean ± SD, N=3
[11] = target: T1, PTP4A3 protein (Homo sapiens, UniProt O75365); assay: Thermal shift assay with SYPRO orange; format: binding; parameters: made in house; settings: 100 µM compound, 16 μM protein
[12] = system: HeyA8 spheroids; assay: Spheroid viability and growth assay; format: cell-based, human
[13] = system: SKOV3IP1; assay: 2D monolayer viability assay (CellTiter Blue); format: cell-based; settings: Homo sapiens; 48 h, Mean ± SD, N=3
[14] = system: A2780CP20; assay: 2D monolayer viability assay (CellTiter Blue); format: cell-based; settings: Homo sapiens; 48 h, Mean ± SD, N=3
[15] = system: A2780; assay: 2D monolayer viability assay (CellTiter Blue); format: cell-based; settings: Homo sapiens, A2780; 48 h, Mean ± SD, N=3; read-out: Monolayer (IC50 µM) A2780
[16] = system: SKOV3; assay: 2D monolayer viability assay (CellTiter Blue); format: cell-based; settings: Homo sapiens, SK-OV-3; 48 h, Mean ± SD, N=3
[17] = system: HEYA8-MDR; assay: 2D monolayer viability assay (CellTiter Blue); format: cell-based; settings: Homo sapiens, 48 h, Mean ± SD, N=3
[18] = system: SKOV3TRIP2; assay: 2D monolayer viability assay (CellTiter Blue); format: cell-based; settings: Homo sapiens; 48 h, Mean ± SD, N=3
[19] = system: HEYA8; assay: 2D monolayer viability assay (CellTiter Blue); format: cell-based; settings: Homo sapiens, HEY A8; 48 h, Mean ± SD, N=3
[20] = system: OVCAR4; assay: 2D monolayer viability assay (CellTiter Blue); format: cell-based; settings: Homo sapiens, OVCAR-4; 48 h, Mean ± SD, N=3
[21] = system: IMR90 fibroblasts; assay: 2D monolayer viability assay (CellTiter Blue); format: cell-based; settings: Homo sapiens, IMR-90; 48 h, N=3
[22] = system: OvCa cell lines; assay: 2D monolayer viability assay, across the panel; format: cell-based, human; settings: Homo sapiens, 48 h, read-out: no significant growth inhibition of any of the OvCa cell lines at concentrations as high as
[23] = system: OvCa cell line spheroids; assay: Spheroid viability assay, across the panel; format: cell-based; settings: Homo sapiens; 48 h exposure; read-out: no effects on spheroids in any cell lines at concentrations up to
[24] = target: T1, PTP4A3 protein; assay: PTP4A3 phosphatase activity assay with DiFMUP substrate; format: biochemical; parameters: using a full-length recombinant human PTP4A3 and DiFMUP as the substrate; His6; made in house; settings: full-length recombinant human PTP4A3, DiFMUP substrate; read-out: PTP4A3 inhibition, inactive at concentrations as high as
[25] = system: RhoA activation in HeyA8 cells; assay: RhoA G-LISA activation assay; format: cell-based, human; settings: HeyA8, 1 µM
[26] = system: primary human lung microvascular endothelial cells (MVEC); assay: Endothelial barrier function (TEER, ECIS) after LPS challenge; format: cell-based
[27] = system: primary human lung microvascular endothelial cells (MVEC); assay: Endothelial barrier function (TEER, ECIS) after VEGF challenge; format: cell-based; settings: 5 µM
[28] = target: T2, p38α (Homo sapiens, UniProt Q16539); assay: Kinase profiling (KinaseSeeker); format: biochemical; settings: 1 µM screening concentration
T2 construct: purchased Luceome Biotechnologies (Tucson, AZ), KinaseSeeker

[29] = system: Rac1 activation in human MVEC; assay: Rac1 activation assay in MVEC after LPS; format: cell-based; settings: 5 µM pretreatment 24 h, LPS 0.5 EU/mL 1 h
[30] = target: T3, Lambda PP (Phage) (Escherichia phage lambda, UniProt P03772); assay: Phosphatase specificity profiling (PhosphataseProfiler); format: biochemical; settings: 10 µM DiFMUP, commercial vendor, N=2, read-out: % Activity (Mean ± SD) Lambda PP (Phage)
T3 construct: purchased Eurofins (Dundee, Scotland, UK), PhosphataseProfiler

[31] = target: PTPRB (PTPβ) (Homo sapiens, UniProt P23467); assay: as above; format: biochemical; settings: 10 µM DiFMUP, commercial vendor, N=2, read-out: % Activity (Mean ± SD) PTPRB (PTPβ)
[32] = target: LMPTP-B (Homo sapiens, UniProt P24666); assay: as above; format: biochemical; settings: 10 µM DiFMUP, commercial vendor, N=2, read-out: % Activity (Mean ± SD) LMPTP-B
[33] = target: PTPN7 (HePTP) (Homo sapiens, UniProt P35236); assay: as above; format: biochemical; settings: 10 µM DiFMUP, commercial vendor, N=2, read-out: % Activity (Mean ± SD) PTPN7 (HePTP)
[34] = system: RhoA activation in human MVEC; assay: RhoA activation pull-down assay in MVEC after LPS; format: cell-based; settings: 5 µM pretreatment 24 h, LPS 0.5 EU/mL 1 h
[35] = target: PTP4A1 (Homo sapiens, UniProt Q93096); assay: PTP4A1 phosphatase activity assay with DiFMUP; format: biochemical; settings: DiFMUP substrate
[36] = target: DUSP13 (TMDP) (Homo sapiens, UniProt Q9UII6); assay: Phosphatase specificity profiling (PhosphataseProfiler); format: biochemical; settings: 10 µM DiFMUP, commercial vendor, N=2, read-out: % Activity (Mean ± SD) DUSP13 (TMDP)
Sequence of DUSP13 (TMDP) (Q9UII6 whole entry): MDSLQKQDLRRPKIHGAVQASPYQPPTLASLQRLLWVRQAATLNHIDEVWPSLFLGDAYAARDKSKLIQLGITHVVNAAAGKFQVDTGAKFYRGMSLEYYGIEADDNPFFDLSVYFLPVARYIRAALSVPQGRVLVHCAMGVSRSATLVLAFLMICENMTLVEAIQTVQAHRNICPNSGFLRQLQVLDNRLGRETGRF

T1 sequence (O75365 whole entry): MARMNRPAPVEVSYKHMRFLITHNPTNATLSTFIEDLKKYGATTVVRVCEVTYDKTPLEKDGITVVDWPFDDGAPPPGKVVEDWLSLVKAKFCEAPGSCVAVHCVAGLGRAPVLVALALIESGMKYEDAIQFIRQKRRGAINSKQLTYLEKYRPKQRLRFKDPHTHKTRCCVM
Sequence of PTP4A1 (Q93096 whole entry): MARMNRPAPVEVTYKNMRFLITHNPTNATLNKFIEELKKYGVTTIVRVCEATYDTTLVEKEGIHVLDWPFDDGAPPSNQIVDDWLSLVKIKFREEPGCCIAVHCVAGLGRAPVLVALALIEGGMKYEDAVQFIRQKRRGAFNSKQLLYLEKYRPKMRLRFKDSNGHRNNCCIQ
T2 sequence (Q16539 whole entry): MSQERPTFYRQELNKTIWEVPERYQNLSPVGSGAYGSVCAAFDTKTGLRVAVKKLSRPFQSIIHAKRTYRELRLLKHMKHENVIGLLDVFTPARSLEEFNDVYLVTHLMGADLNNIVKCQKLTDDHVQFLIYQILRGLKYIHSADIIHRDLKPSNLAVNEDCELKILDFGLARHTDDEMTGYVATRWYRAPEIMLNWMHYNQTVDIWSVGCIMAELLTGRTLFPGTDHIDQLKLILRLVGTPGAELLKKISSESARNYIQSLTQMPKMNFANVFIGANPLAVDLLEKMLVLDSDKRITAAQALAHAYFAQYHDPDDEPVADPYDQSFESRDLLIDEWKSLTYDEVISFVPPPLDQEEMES
Sequence of LMPTP-B (P24666 1-158 isoform P24666-2): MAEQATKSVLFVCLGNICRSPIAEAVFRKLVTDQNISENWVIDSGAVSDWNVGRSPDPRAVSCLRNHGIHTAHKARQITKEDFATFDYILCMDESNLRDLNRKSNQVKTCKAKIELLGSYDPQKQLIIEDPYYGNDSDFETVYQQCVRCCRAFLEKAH
Sequence of PTPN7 (HePTP) (P35236 whole entry): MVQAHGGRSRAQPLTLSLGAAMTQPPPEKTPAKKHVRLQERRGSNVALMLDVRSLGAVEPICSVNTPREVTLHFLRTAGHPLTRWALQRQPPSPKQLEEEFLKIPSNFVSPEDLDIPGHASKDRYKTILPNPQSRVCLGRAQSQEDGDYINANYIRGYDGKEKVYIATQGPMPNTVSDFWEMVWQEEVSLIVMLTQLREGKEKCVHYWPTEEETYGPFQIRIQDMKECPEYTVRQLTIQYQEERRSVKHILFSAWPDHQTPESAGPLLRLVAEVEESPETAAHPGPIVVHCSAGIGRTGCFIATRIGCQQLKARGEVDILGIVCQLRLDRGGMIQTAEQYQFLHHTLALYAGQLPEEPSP
Sequence of PTPRB (PTPβ) (P23467 23-1997): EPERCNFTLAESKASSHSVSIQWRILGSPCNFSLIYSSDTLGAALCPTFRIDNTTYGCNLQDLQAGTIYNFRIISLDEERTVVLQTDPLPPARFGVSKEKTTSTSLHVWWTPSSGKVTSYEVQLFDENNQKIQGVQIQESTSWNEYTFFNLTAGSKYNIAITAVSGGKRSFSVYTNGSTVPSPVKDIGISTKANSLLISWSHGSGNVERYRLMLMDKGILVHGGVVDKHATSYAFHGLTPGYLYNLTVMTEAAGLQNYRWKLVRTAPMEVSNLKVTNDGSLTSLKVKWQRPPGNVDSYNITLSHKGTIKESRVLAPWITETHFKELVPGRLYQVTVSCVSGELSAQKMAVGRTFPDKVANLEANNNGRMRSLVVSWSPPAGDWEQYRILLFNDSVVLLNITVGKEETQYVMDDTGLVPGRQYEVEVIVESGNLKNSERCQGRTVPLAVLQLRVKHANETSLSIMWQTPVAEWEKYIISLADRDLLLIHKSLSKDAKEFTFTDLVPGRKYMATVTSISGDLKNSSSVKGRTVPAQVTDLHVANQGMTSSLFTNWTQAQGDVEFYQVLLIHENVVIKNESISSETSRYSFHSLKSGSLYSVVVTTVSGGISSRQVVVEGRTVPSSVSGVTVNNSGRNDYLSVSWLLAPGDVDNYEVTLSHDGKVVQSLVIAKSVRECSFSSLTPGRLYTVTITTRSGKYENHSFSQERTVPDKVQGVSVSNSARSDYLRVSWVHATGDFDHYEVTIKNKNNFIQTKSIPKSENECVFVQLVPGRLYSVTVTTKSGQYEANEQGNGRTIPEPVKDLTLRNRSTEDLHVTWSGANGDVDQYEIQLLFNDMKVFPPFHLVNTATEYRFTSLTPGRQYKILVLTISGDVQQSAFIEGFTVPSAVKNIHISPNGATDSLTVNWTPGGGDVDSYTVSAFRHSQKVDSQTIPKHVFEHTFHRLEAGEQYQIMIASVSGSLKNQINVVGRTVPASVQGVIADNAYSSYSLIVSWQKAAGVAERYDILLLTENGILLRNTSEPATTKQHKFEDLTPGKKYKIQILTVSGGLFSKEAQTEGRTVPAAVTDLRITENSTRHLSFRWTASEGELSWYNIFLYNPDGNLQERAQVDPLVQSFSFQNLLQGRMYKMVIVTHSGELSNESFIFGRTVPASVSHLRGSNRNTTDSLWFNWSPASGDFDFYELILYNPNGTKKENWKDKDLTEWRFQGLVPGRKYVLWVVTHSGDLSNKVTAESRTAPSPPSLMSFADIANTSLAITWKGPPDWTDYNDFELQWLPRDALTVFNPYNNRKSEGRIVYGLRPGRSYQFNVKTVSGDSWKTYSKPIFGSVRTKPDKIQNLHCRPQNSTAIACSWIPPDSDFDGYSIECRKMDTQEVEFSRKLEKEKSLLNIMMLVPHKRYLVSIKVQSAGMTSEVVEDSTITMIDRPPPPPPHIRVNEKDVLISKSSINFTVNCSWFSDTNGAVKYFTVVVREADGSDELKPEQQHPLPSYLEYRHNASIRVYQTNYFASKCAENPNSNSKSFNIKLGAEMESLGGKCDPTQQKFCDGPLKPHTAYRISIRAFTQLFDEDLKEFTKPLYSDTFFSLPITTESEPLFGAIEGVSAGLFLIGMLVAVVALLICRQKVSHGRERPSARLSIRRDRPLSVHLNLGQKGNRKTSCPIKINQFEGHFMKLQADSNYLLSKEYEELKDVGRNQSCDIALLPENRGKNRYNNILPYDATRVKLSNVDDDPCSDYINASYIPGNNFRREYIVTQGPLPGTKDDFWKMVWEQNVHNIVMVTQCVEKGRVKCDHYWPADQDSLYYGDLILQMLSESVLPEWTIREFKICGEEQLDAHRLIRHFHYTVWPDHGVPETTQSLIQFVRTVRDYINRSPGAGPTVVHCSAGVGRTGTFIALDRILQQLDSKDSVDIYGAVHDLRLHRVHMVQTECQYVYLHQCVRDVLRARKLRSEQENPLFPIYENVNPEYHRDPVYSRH
T3 sequence (P03772 whole entry): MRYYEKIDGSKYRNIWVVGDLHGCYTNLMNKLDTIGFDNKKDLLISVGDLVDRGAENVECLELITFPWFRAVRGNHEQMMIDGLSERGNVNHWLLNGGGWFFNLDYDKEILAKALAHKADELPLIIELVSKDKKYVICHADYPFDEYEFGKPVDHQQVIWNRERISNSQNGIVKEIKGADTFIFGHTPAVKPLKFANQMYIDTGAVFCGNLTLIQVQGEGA

SMILES: O=c1[nH]c(=O)c2cc(-c3ccccc3)sc2[nH]1 [JMS-038]
migration of HeyA8 cells after wounding [1]: but not JMS-038 blocked the migration
IC50 [2]: > 50 µM
IC50 [3]: > 50 µM
IC50 [4]: > 50 µM
IC50 [5]: > 50 µM
IC50 [6]: > 50 µM
IC50 [7]: > 50 µM
IC50 [8]: > 25 µM
IC50 [9]: > 50 µM
IC50 [10]: > 50 µM
∆Tm of PTP4A3 (destabilizing thermal shift) [11]: no significant thermal shift; also recorded: no effect
IC50 ([12]; Homo sapiens, HEY A8, 48 h, Mean ± SD, N=3): > 50 µM
HeyA8 cell spheroid growth (images) ([12]; images 48 h after plating and 24 h after compound addition): but not JMS-038 inhibited HeyA8 cell spheroid growth
IC50 [13]: > 50 µM
IC50 [14]: > 50 µM
IC50 [15]: > 50 µM
IC50 [16]: > 50 µM
IC50 [17]: > 50 µM
IC50 [18]: > 50 µM
IC50 [19]: > 50 µM
IC50 [20]: > 50 µM
IC50 [21]: > 50 µM
IC50 [22]: > 50 µM
IC50 [23]: > 50 µM
IC50 [24]: > 100 µM
effect on RhoA activation compared to DMSO vehicle control [25]: no significant effect

SMILES: N=C1C(=O)NC(=O)c2cc(-c3ccccc3)sc21 [JMS-053]
TEER after LPS, pretreatment ([26]; 5 µM, 24 h prior to LPS 0.5 EU/mL): prevented LPS-induced disruption of the endothelial barrier function
TEER after LPS, post-treatment ([26]; treatment 3 h after LPS exposure): no observed mitigation
TEER after VEGF, pretreatment ([27]; 2 h before VEGF 100 ng/mL then continuous exposure): normalized
TEER after VEGF, post-treatment ([27]; 3 h after VEGF 100 ng/mL): normalized endothelial barrier function
inhibition of p38α [28]: ~50%
LPS-mediated reduction in Rac1 activation [29]: blocked
activity at 1 µM [30]: 72 ± 3%
activity at 1 µM [31]: 95 ± 5%
activity at 1 µM [32]: 99%
activity at 1 µM [33]: 97 ± 3%
LPS-mediated RhoA activation [34]: blocked
activity at 1 µM ([35]; 1 µM, in-house assay, N=2, read-out: % Activity (Mean ± SD) PTP4A1): 1%
IC50 [35]: 0.05 ± 0.014 µM
activity at 1 µM [36]: 95 ± 1%

IC50 [13]: 31.3 ± 8.5 µM
IC50 [14]: 13.1 ± 6 µM
IC50 [15]: 4.5 ± 0.6 µM
IC50 [16]: 28.8 ± 2.2 µM
IC50 [18]: > 50 µM
IC50 [20]: 15.5 ± 2.4 µM
SMILES: Nc1c[nH]c(=O)c2cc(-c3ccccc3)sc12 [thienopyridone, reference compound]
IC50 [17]: > 50 µM
IC50 [19]: 47 ± 4.9 µM
